Measured values published in the NIST ThermoML archive (doi:10.1016/j.jct.2013.12.008).
± gives the expanded uncertainty stated by the source.

Settings: 101.33 kPa, Liquid; for viscosity: Capillary tube (Ostwald / Ubbelohde) method; for mass density: Pycnometric method

| viscosity (298.15 K) [mPa·s] | mass density (298.15 K) [kg/m3] | viscosity (308.15 K) [mPa·s] | mass density (308.15 K) [kg/m3] | viscosity (318.15 K) [mPa·s] | mass density (318.15 K) [kg/m3] | Structure (SMILES) |
| --- | --- | --- | --- | --- | --- | --- |
| 1.223 ± 0.05 | 960.2 ± 0.6 | 0.982 ± 0.04 | 953.4 ± 0.8 | 0.823 ± 0.034 | 942.5 ± 0.9 | CCOc1ccccc1 [ethoxybenzene] |
| 0.989 ± 0.04 | 988.9 ± 0.8 | 0.906 ± 0.037 | 979.5 ± 0.8 | 0.84 ± 0.034 | 970.5 ± 0.8 | COc1ccccc1 [anisole] |
